Structures are written as SMILES.

The values below come from article PMC9918900, “New Succinimide–Thiazolidinedione Hybrids as Multitarget Antidiabetic Agents: Design, Synthesis, Bioevaluation, and Molecular Modelling Studies” (Molecules, 2023).

The test system of assay [1] is streptozotocin-induced diabetic rats. Put plainly: liver and renal serum biomarkers. As to conditions: 0.5 mg/kg, 28th day. The class given is in vivo, Wistar rats. On the procedure:
(§1) Non-insulin-dependent diabetes mellitus was induced in fasted rats weighing 150–230 gm using a single dose of streptozotocin (STZ) at a dose of 60 mg/kg intraperitoneally after 15 min of the administration of nicotinamide at a 120 mg/kg dose i.p. Nicotinamide was prepared in normal saline while in citrate buffer (pH 4.5), STZ was prepared. After the induction of diabetes, the increase in the plasma glucose level was measured at 72 h and then measured on the 7th day to confirm hyperglycemia. For the diagnosis of diabetes, the threshold value of the fasting plasma glucose level was considered to be more than 126 mg/dl. For the study, only the animals with permanent NIIDM were utilized.
(§2) The animals were classified into 5 groups with 6 animals in each group (n = 6). Group I comprised of normal control rats which were daily administered drinking water only; group II served as diabetic control rats (disease group); group III served as the positive control and were administered 0.5 mg/kg of the standard drug glibenclamide; and group IV and V served as the test group rats and were administered the test compound 10d at 10 mg/kg and 20 mg/kg, respectively, for twenty-eight days. The fasting glucose concentration was measured on the 0, 7th, 14th, and 28th day of the administration of the extract. During the experimental tenure, the weights of the rats were determined daily and the mean change was recorded.
(§3) The animals were euthanized (sacrificed) via cervical dislocation on the 28th day to observe the biochemical parameters. The parameters studied were triglyceride (TGL), cholesterol, low-density lipoprotein, and high-density lipoprotein (LDL and HDL). The Minias Globe Diagnostic kits were used for cholesterol and TGL. Semi-autoanalyzers were used for the analysis. The serum samples from the rats were also checked for alanine aminotransferase (ALT), aspartate aminotransferase (AST), lactate dehydrogenase (LDH), serum alkaline phosphatase (ALP), and creatinine and urea levels utilizing commercially available kits of Crest Biosystems. The statistical analysis was also performed as per the previous procedure.

For assay [2] the test system is unchanged. The experiment in a line: in vivo antidiabetic activity, fasting plasma glucose level. Also noted: species or system Wistar rats. The settings on record: STZ-induced diabetic rats, 0.5 mg/kg, 28th day. On the procedure:
(§4) The antidiabetic activity of the synthesized compound 10d was evaluated using a streptozotocin-induced diabetic rats model.
(§5) Male Wistar rats weighing 150 to 230 gm were used for the study which were housed in polyacrylic cages (no more than six animals per cage) with dimensions of 38 × 23 × 10 cm and maintained under standard laboratory conditions with a dark/light cycle of 14 h of dark and 10 h of light at a temperature of 25 °C. The animals were provided with a standard diet (dry pellet) and water ad libitum. Before the start of the experimental procedures, the rats were acclimatized to laboratory conditions for 10 days. All the experiments were approved and performed as per the guidelines of the Departmental Research Ethics Committee under letter No. DREC/050 [49].
as §1
The animals were classified into 5 groups with 6 animals in each group (n = 6). […] The fasting glucose concentration was measured on the 0, 7th, 14th, and 28th day of the administration of the extract. During the experimental tenure, the weights of the rats were determined daily and the mean change was recorded.

The test system is the same in assay [3]. The experiment in a line: effect on serum lipid profile of diabetic animals. Type of assay: in vivo, Wistar rats. As to conditions: compared to diabetic control group. On the procedure:
as §4, §5, §1, §2, §3

For assay [4] the test system is unchanged. Put plainly: effect on body weight. Type of assay: in vivo, Wistar rats. The settings on record: glibenclamide group, 0.5 mg/kg. On the procedure: as §4, §5, §1, §2

For the compound `COc1ccc(Cl)cc1C(=O)NCCc1ccc(S(=O)(=O)NC(=O)NC2CCCCC2)cc1` [Glibenclamide, glibenclamide, reference compound], in assay [1], the ALP is 124.42 ± 2.35 U/L, the ALT was determined as 76.23 ± 2.13 U/L, the AST is 80.36 ± 2.12 U/L and the Creatinine was 0.44 ± 0.04 ^ns mg/dl. In assay [1], this compound had an LDH of 826.21 ± 5.60 U/L and a Urea of 42.45 ± 2.21 mg/dL. Also, the blood glucose level in assay [2] worked out at 72.44 ± 3.58 mg/dL. In assay [3], the HDL level entry is “greater than before”, the LDL in serum result is listed as “significant decline”, the “total cholesterol level in serum” value is on record as “significant decline” and the triglyceride in serum entry was “significant decline”. For the same compound, in assay [4], the “Change in Body Weight, After Induction” value stood at 160.52 ± 2.23 gm and the “Change in Body Weight, Before Induction” value was 180.66 ± 1.67 ^ns gm. Moreover, the “Change in Body Weight, After Treatment” value in assay [4] (28 days) was 176.90 ± 4.45 gm.
